Experimental data as given in ChEMBL document CHEMBL5365456, “Isolation and biological activity of natural chalcones based on antibacterial mechanism classification” (Bioorg Med Chem, 2023).
In brackets after ≈: the same amount, converted by molar mass.

What was measured:
[1] = Inhibition of Escherichia coli 0157:H7 AI-2 incubated for 3.5 hrs in dark condition by microplate reader analysis
Escherichia coli [2] = assay: Antibiofilm activity against Escherichia coli 0157:H7 at 200 uM incubated for 24 hr by crystal violet staining based assay relative to control; format: functional
Escherichia coli [3] = assay: Antibiofilm activity against Escherichia coli 0157:H7 at 6.25 uM incubated for 24 hr by crystal violet staining based assay relative to control; format: functional
Staphylococcus aureus [4] = assay: Antibiofilm activity against Staphylococcus aureus 6538 at 0.78 ug/ml incubated for 24 hr by crystal violet staining based assay relative to control; format: functional
Bacillus subtilis = assay: Bactericidal activity against Bacillus subtilis as by CLSI-based micro broth dilution method; format: functional
Staphylococcus aureus [5] = assay: Antibiofilm activity against Staphylococcus aureus BAA44 at 0.78 ug/ml incubated for 24 hr by crystal violet staining based assay relative to control; format: functional
Staphylococcus aureus [6] = assay: Antibiofilm activity against Staphylococcus aureus BAA44 incubated for 24 hr by crystal violet staining based assay; format: functional
Clostridioides difficile = assay: Antibacterial activity against Clostridium difficile ATCC 43255 assessed as bacterial growth inhibition incubated for 24 hrs by two-fold serial dilution method; format: functional
Staphylococcus aureus [7] = assay: Antibiofilm activity against Staphylococcus aureus 6538 incubated for 24 hr by crystal violet staining based assay; format: functional
Staphylococcus aureus [8] = assay: Antibacterial activity against Staphylococcus aureus ATCC 29213 assessed as bacterial growth inhibition incubated for 18 hrs by CLSI-based broth microdilution method; format: functional
Staphylococcus aureus [9] = assay: Antibacterial activity against Staphylococcus aureus MSSA1 assessed bacterial growth inhibition by CLSI-based broth microdilution method; format: functional
Staphylococcus xylosus [10] = assay: Antibiofilm activity against Staphylococcus xylosus ATCC 700404 at 20 ug/ml incubated for 24 hr by crystal violet staining based assay relative to control; format: functional
[11] = Inhibition of FAS1 in Mycobacterium smegmatis mc2 155 transfected with pVV16 vector by BCA assay; design: species or system Mycolicibacterium smegmatis
[12] = Inhibition of His-tagged Escherichia coli ANS1 FabG using acetoacetyl-CoA as substrate by spectrometric analysis
[13] = Inhibition of FAS2 in Mycobacterium smegmatis mc2 155 transfected with pVV16 vector expressing Rv0636 by BCA assay; design: species or system Mycolicibacterium smegmatis
Escherichia coli [14] = assay: Antibacterial activity against Escherichia coli ANS1 assessed as bacterial growth inhibition incubated for 20 hrs by broth microdilution method; format: functional
[15] = Inhibition of FAS2 in Mycobacterium smegmatis mc2 155 transfected with pVV16 vector by BCA assay; design: species or system Mycolicibacterium smegmatis
[16] = Inhibition of FAS1 in Mycobacterium smegmatis mc2 155 transfected with pVV16 vector expressing Rv0636 by BCA assay; design: species or system Mycolicibacterium smegmatis
Staphylococcus xylosus [17] = assay: Antibacterial activity against Staphylococcus xylosus ATCC 700404 assessed bacterial growth inhibition incubated for 24 hrs by Broth microdilution method; format: functional
Staphylococcus xylosus [18] = assay: Inhibition of Staphylococcus xylosus ATCC 700404 IGPD at 40 ug/ml relative to control; conditions: dose 40.0 µg/ml
[19] = Inhibition of His-tagged Escherichia coli ANS1 Fab1 using trans-2-octanoyl-N-acetylcysteamine as substrate by spectrometric analysis
[20] = tested on: Mycobacterium tuberculosis; assay: Antitubercular activity against XDR Mycobacterium tuberculosis X24 assessed as bacterial growth inhibition measured for 9 days; format: functional; conditions: X24, 216 h, time 9 day
Micrococcus luteus = assay: Antibacterial activity against Micrococcus luteus assessed bacterial growth inhibition by CLSI-based micro broth dilution method; format: functional
Staphylococcus aureus [21] = assay: Inhibition of Staphylococcus aureus ATCC 6538 LDH at 7.81 ug/ml relative to control; conditions: dose 7.81 µg/ml
Candida albicans [22] = assay: Antifungal activity against Candida albicans SC5314 assessed as fungal growth inhibition incubated for 48 hrs by CLSI protocol based assay; format: functional
Cutibacterium acnes [23] = assay: Antibacterial activity against Propionibacterium acnes KCTC5527 assessed as bacterial growth inhibition incubated for 48 hrs by broth microdilution assay; format: functional
Staphylococcus aureus [24] = assay: Antibiofilm activity against Staphylococcus aureus RN4220 at 1 ug/ml incubated for 18 to 24 hrs by broth microdilution method relative to control; format: functional; conditions: time 18-24 hrs
Streptococcus pyogenes [25] = assay: Antibacterial activity against Streptococcus pyogenes ATCC 19615 assessed bacterial growth inhibition incubated for 24 hrs by double dilution method; format: functional
Cutibacterium acnes [26] = assay: Antibacterial activity against Propionibacterium acnes KCTC3220 assessed as bacterial growth inhibition incubated for 48 hrs by broth microdilution assay; format: functional
Escherichia coli [27] = assay: Antibiofilm activity against Escherichia coli 0157:H7 at 25 ug/ml incubated for 10 hrs by crystal violet staining based assay relative to control; format: functional
Staphylococcus aureus [28] = assay: Inhibition of Staphylococcus aureus ATCC 6538 IDH at 7.81 ug/ml relative to control; conditions: dose 7.81 µg/ml
Staphylococcus aureus [29] = assay: Inhibition of Staphylococcus aureus ATCC 6538 Catalase at 7.81 ug/ml relative to control; conditions: dose 7.81 µg/ml
[30] = tested on: Mycobacterium tuberculosis; assay: Antitubercular activity against Mycobacterium tuberculosis H37Rv assessed as bacterial growth inhibition measured for 9 days; format: functional; conditions: 216 h, time 9 day
Sortase B = biological target: T1, Sortase B (Staphylococcus aureus, UniProt Q2FZE3); assay: Inhibition of Staphylococcus aureus sortase b transpeptidation expressed in Escherichia coli BL21 (DE3) cells using Fluorescent peptide as substrate at 16 ug/ml preincubated for 30 mins followed by substrate addition and measured for 1 hr by FRET assay
T1 sequence (Q2FZE3 whole entry): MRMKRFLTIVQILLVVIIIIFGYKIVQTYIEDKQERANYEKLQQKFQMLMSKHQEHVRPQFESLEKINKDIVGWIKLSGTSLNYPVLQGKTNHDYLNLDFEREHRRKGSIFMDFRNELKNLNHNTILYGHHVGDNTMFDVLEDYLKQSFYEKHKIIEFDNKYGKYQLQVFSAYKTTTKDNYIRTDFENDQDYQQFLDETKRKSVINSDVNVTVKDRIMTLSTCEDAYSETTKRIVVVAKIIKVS

Listeria monocytogenes = assay: Antibiofilm activity against Listeria monocytogenes CMCC 54004 at 20 ug/ml by crystal violet staining based assay relative to control; format: functional
Staphylococcus aureus [31] = assay: Antibacterial activity against Staphylococcus aureus BAA 1717 assessed as bacterial growth inhibition by CLSI-based broth micro-dilution method; format: functional
Staphylococcus aureus [32] = assay: Antibiofilm activity against Staphylococcus aureus RN4220 incubated for 18 to 24 hrs by broth microdilution method; format: functional; conditions: time 18-24 hrs
Staphylococcus aureus [33] = assay: Antibacterial activity against Staphylococcus aureus BAA 1707 assessed as bacterial growth inhibition by CLSI-based broth micro-dilution method; format: functional
Klebsiella pneumoniae = assay: Antibacterial activity against Klebsiella pneumoniae assessed bacterial growth inhibition by CLSI-based micro broth dilution method; format: functional
Staphylococcus aureus [34] = assay: Antibiofilm activity against Staphylococcus aureus SA1199B incubated for 18 to 24 hrs by broth microdilution method; format: functional; conditions: time 18-24 hrs
Candida albicans [35] = assay: Inhibition of Candida albicans SC5314 hyphal transition at 74.55 ug/ml incubated for 24 hrs relative to control; format: functional
Escherichia coli [36] = assay: Antibiofilm activity against Escherichia coli 0157:H7 at 50 ug/ml incubated for 10 hrs by crystal violet staining based assay relative to control; format: functional
Candida albicans [37] = assay: Antifungal activity against Candida albicans SC5314 assessed as fungal growth inhibition incubated for 48 hrs by CLSI-based two-fold serial dilution method; format: functional
Streptococcus pyogenes [38] = assay: Antibiofilm activity against Streptococcus pyogenes ATCC 19615 at 23.4 ug/ml incubated for 1 hr by crystal violet staining based assay relative to control; format: functional; conditions: dose 23.4 µg/ml
Cutibacterium acnes [39] = assay: Antibacterial activity against Propionibacterium acnes KCTC3314 assessed as bacterial growth inhibition incubated for 48 hrs by broth microdilution assay; format: functional
Staphylococcus aureus [40] = assay: Antibiofilm activity against Staphylococcus aureus RN4220 at 8 to 256 ug/ml incubated for 18 to 24 hrs by broth microdilution method relative to control; format: functional; conditions: dose 8-256 µg/ml; time 18-24 hrs; at 8 to 256 µg/mL
[41] = tested on: Mycobacterium tuberculosis; assay: Antitubercular activity against XDR Mycobacterium tuberculosis X59 assessed as bacterial growth inhibition measured for 9 days; format: functional; conditions: X59, 216 h, time 9 day
[42] = tested on: Pectobacterium brasiliense; assay: Antibiofilm activity against Pectobacterium brasiliense Pb1692 at 0.4 ug/ml incubated for 72 hr by crystal violet staining based assay relative to control; format: functional
Staphylococcus aureus [43] = assay: Antibacterial activity against Staphylococcus aureus 8325-4 assessed as bacterial growth inhibition by CLSI-based broth micro-dilution method; format: functional
Staphylococcus aureus [44] = assay: Antibacterial activity against Staphylococcus aureus ATCC 6538 assessed bacterial growth inhibition incubated for 24 hrs by CLSI-based broth dilution method; format: functional
Staphylococcus aureus [45] = assay: Antibacterial activity against Staphylococcus aureus Newman assessed as bacterial growth inhibition by CLSI-based broth micro-dilution method; format: functional
Staphylococcus aureus [46] = assay: Antibacterial activity against Staphylococcus aureus ATCC 29213 assessed as bacterial growth inhibition by CLSI-based broth micro-dilution method; format: functional
Staphylococcus aureus [47] = assay: Antibacterial activity against Staphylococcus aureus ATCC 25923 assessed as bacterial growth inhibition by CLSI-based broth micro-dilution method; format: functional
Candida albicans [48] = assay: Antibiofilm activity against Candida albicans ATCC SC5314 at 74.55 ug/ml incubated for 24 hr by crystal violet staining based assay relative to control; format: functional
Staphylococcus aureus [49] = assay: Antibiofilm activity against Staphylococcus aureus SA1199B at 128 ug/ml incubated for 18 to 24 hrs by broth microdilution method relative to control; format: functional; conditions: time 18-24 hrs
Cutibacterium acnes [50] = assay: Antibacterial activity against Propionibacterium acnes KCTC5933 assessed as bacterial growth inhibition incubated for 48 hrs by broth microdilution assay; format: functional

## COc1cc(O)ccc1/C=C/C(=O)c1ccc(O)cc1 [ECHINATIN]
[1]
  IC50: 21.7 µM
Escherichia coli [2]
  inhibition at 200 µM: 71.5%
Escherichia coli [3]
  inhibition at 6.25 µM: 40%

## CC(C)=CCc1c(O)ccc(C(=O)/C=C/c2ccc(O)cc2)c1O [ISOBAVACHALCONE]
Staphylococcus aureus [4]
  inhibition at 0.78 µg/mL: 75%
Bacillus subtilis
  MBC: 4 µg/mL (≈ 12.3 µM)
Staphylococcus aureus [5]
  inhibition at 0.78 µg/mL: 80%
Staphylococcus aureus [6]
  MBIC: 0.78 µg/mL
Clostridioides difficile
  MIC: 4 µg/mL (≈ 12.3 µM)
Staphylococcus aureus [7]
  MBIC: 0.78 µg/mL
Staphylococcus aureus [8]
  MIC: 4 µg/mL (≈ 12.3 µM)
Staphylococcus aureus [9]
  MIC: 0.5 µg/mL (≈ 1.54 µM)

## O=C(/C=C/c1ccc(O)cc1)c1ccc(O)cc1O [ISOLIQUIRITIGENIN]
Staphylococcus xylosus [10]
  inhibition at 20 µg/mL: 45%
[11]
  IC50: 96 µg/mL (≈ 375 µM)
[12]
  IC50: 20 µM
[13]
  IC50: 17 µg/mL (≈ 66.3 µM)
Escherichia coli [14]
  MIC: 25 µM (≈ 6.41 µg/mL)
[15]
  IC50: 7 µg/mL (≈ 27.3 µM)
[16]
  IC50: 96 µg/mL (≈ 375 µM)
Staphylococcus xylosus [17]
  MIC: 80 µg/mL (≈ 312 µM)
Staphylococcus xylosus [18]
  inhibition: 60%
[19]
  IC50: 40 µM

## O=C(CCc1ccc(O)cc1)c1c(O)cc(O)cc1O [PHLORETIN]
[1]
  IC50: 62.5 µM
[20]
  MIC90: 182 µM (≈ 49.9 µg/mL)
Micrococcus luteus
  MIC50: 230 µM (≈ 63.1 µg/mL)
Staphylococcus aureus [21]
  inhibition: 20%
Candida albicans [22]
  MIC: 74.5 µg/mL (≈ 272 µM)
Cutibacterium acnes [23]
  MIC: 16 µM (≈ 4.39 µg/mL)
Staphylococcus aureus [24]
  inhibition at 1 µg/mL: 60%
Streptococcus pyogenes [25]
  MIC: 46.8 µg/mL (≈ 171 µM)
Cutibacterium acnes [26]
  MIC: 16 µM (≈ 4.39 µg/mL)
Escherichia coli [27]
  inhibition at 25 µg/mL: 89%
Staphylococcus aureus [28]
  inhibition: 60%
Staphylococcus aureus [29]
  inhibition: 30%
[30]
  MIC90: 182 µM (≈ 49.9 µg/mL)
Sortase B
  IC50: 35.5 µM
Listeria monocytogenes
  inhibition at 20 µg/mL: 60%
Staphylococcus aureus [31]
  MIC: 128 µg/mL (≈ 467 µM)
Staphylococcus aureus [32]
  MBIC50: 1 µg/mL
Staphylococcus aureus [33]
  MIC: 128 µg/mL (≈ 467 µM)
Klebsiella pneumoniae
  MIC50: 410 µM (≈ 112 µg/mL)
Staphylococcus aureus [34]
  MBIC50: 256 µg/mL
Candida albicans [35]
  inhibition at 74.55 µg/mL: 80%
Escherichia coli [36]
  inhibition at 50 µg/mL: 93%
Candida albicans [37]
  MIC: 74.5 µg/mL (≈ 272 µM)
Streptococcus pyogenes [38]
  inhibition (INH): 46.4%
Cutibacterium acnes [39]
  MIC: 16 µM (≈ 4.39 µg/mL)
Staphylococcus aureus [40]
  inhibition (INH): >70%
[41]
  MIC90: 182 µM (≈ 49.9 µg/mL)
[42]
  inhibition at 0.4 µg/mL: > 60%
Staphylococcus aureus [43]
  MIC: 128 µg/mL (≈ 467 µM)
Staphylococcus aureus [44]
  MIC: 7.81 µg/mL (≈ 28.5 µM)
Staphylococcus aureus [45]
  MIC: 128 µg/mL (≈ 467 µM)
Staphylococcus aureus [46]
  MIC: 128 µg/mL (≈ 467 µM)
Staphylococcus aureus [47]
  MIC: 128 µg/mL (≈ 467 µM)
Candida albicans [48]
  inhibition at 74.55 µg/mL: 76%
Staphylococcus aureus [49]
  inhibition at 128 µg/mL: ≥ 50%
Cutibacterium acnes [50]
  MIC: 16 µM (≈ 4.39 µg/mL)
